From EP0414894A1 (priority 1989, dated 1990)
Values joined by “and” are separate entries in the source; they are usually repeats but may differ in a detail not shown here. Equal values may be shown once. Read-outs that look alike come from different tables or passages of the source.

Assays:
[1] = test system: domestic flies; assay: insecticidal activity, laboratory test in gauze boxes; assay type: in vivo; conditions: 2% solution in 5% aqueous glucose; observed in 48-72 hours
Experimental: The compound obtained was used for preparing an insecticidal composition which was a 2% solution of the compound in a 5% aqueous solution of glucose. The test for activity of the insecticidal composition of the invention was conducted on domestic flies. Into gause 10x10 cm boxes /6 boxes/ 6-7-day flies were placed in the number of 50 individuals per box, which were of both sexes. The Petri dishes containing the insecticidal composition of the invention were put into 5 boxes. The observations for fly death were carried out in 48-72 hours. The Petri dish containing a 5% aqueous glucose solution were placed into a control box.

[2] = test system: domestic flies; assay: insecticidal activity, full-scale (large-scale) test in premises; assay type: in vivo; conditions: 2% solution, 2-3 dishes per 20 m²; 72 hours
Experimental: The full-scale tests for activity of the insecticidal composition of the invention to domestic flies in habitable and industrial premises were carried out as follows. The Petri dishes containing a 2% solution of the insecticidal composition of the invention were located according 2-3-dishes per 20 m². The composition activity was evaluated by a direct estimation of killed insects in 72 hours or by using an adhesive tape to count the number of flies on its surface prior to and after conducting the test.

[3] = test system: Escherichia coli; assay: microbe, parasite or virus in culture; assay type: cell-based; conditions: for killing at 0.2 %: read-out: Death of micro-organisms, % E.coli
[4] = test system: Staphylococcus aureus; assay: microbe, parasite or virus in culture; assay type: cell-based; conditions: for killing at 0.2 %: read-out: Death of micro-organisms, % S.aureus
[5] = test system: poliomyelitis virus
[6] = test system: Hepatitis B virus; assay: virulicidal activity, HBsAg titer in blood serum
Text: table ratio instead of the test composition.

[7] = test system: Influenza A viruses; assay: virulicidal activity, virus titer in allantoic fluid by hemagglutination-inhibition
[8] = test system: Meningopneumonia virus; set-up: species or system meningopneumonia pathogene/MP strain/
[9] = test system: pig ascarid eggs; assay: microbe, parasite or virus in culture
[10] = concentration 1.0 % by mass, 30 min
[11] = concentration 1.0 % by mass, 60 min
[12] = concentration 2.0 % by mass, 30 min
[13] = concentration 2.0 % by mass, 60 min
[14] = 24 h, read-out: Death of ascaridal eggs, % after 24 hours
[15] = 48 h, read-out: Death of ascaridal eggs, % after 48 hours

Structure (SMILES): CC(C)OP(=NC(CO)C(O)c1ccc([N+](=O)[O-])cc1)(OC(C)C)OC(C)C (stereo not drawn) [Example 3, triisopropoxyphosphazo-1-para-nitrophenyl-1,3-propandiol]
- Death of flies, % Tests in laboratory [1]: 82.0%
- Death of flies, % Tests in large-scale [2]: 80.0%

Structure (SMILES): O=[N+]([O-])c1ccc(C(O)C(CO)N=P(Oc2ccc(Cl)cc2)(Oc2ccc(Cl)cc2)Oc2ccc(Cl)cc2)cc1 (stereo not drawn) [Example 41, tri-para-chlorophenoxyphosphazo-1-para-nitrophenyl-1,3-dihydroxyisopropyl]
- killing at 0.2 % ([3]; Escherichia coli): 100%
- killing at 0.2 % ([4]; Staphylococcus aureus): 90%
- Virulicidal activity (%) to poliomyelitis virus under exposure of 30 min [5, 10]: 50.0%
- Virulicidal activity (%) to poliomyelitis virus under exposure of 60 min [5, 11]: 80.0%
- Virulicidal activity (%) to poliomyelitis virus under exposure of 30 min [5, 12]: 90.0%
- Virulicidal activity (%) to poliomyelitis virus under exposure of 60 min [5, 13]: 100.0%

Structure (SMILES): O=[N+]([O-])c1ccc(C(O)C(CO)N=P(Cl)(Oc2ccccc2)Oc2ccccc2)cc1 (stereo not drawn) [Example 36, diphenoxychlorophosphazo-1-nitrophenyl-1,3-dihydroxypropyl]
- Death of micro-organisms, % E.coli [3]: 100.0%
- Death of micro-organisms, % S.aureus [4]: 90.0%
- Virulicidal activity (%) to poliomyelitis virus under exposure of 30 min [5]: 50.0% and 90.0%
- Virulicidal activity (%) to poliomyelitis virus under exposure of 60 min [5]: 80.0% and 90.0%

Structure (SMILES): O=[N+]([O-])c1ccc(C(O)C(CO)N=P(Oc2ccccc2)(Oc2ccccc2)Oc2ccccc2)cc1 (stereo not drawn) [Example 21, triphenoxyphosphazo-1-para-nitrophenyl-1,3-propanol]
- Virulicidal activity (%) under exposure 30 min ([6]; concentration 1.0 % by mass): 50.0%
- Virulicidal activity (%) under exposure 60 min ([6]; concentration 1.0 % by mass): 87.5%
- Virulicidal activity (%) under exposure 30 min ([6]; concentration 2.0 % by mass): 100,0%
- Virulicidal activity (%) under exposure 60 min ([6]; concentration 2.0 % by mass): 100,0%
- Virulicidal activity (%) under exposure 30 min ([7]; concentration 1.0 % by mass): 87.5%
- Virulicidal activity (%) under exposure 60 min ([7]; concentration 1.0 % by mass): 100.0%

Structure (SMILES): Cc1ccc(OP(=NC(CO)C(O)c2ccc([N+](=O)[O-])cc2)(Oc2ccc(C)cc2)Oc2ccc(C)cc2)cc1 (stereo not drawn) [Example 40, tri-para-methylphenoxy-1-para-nitrophenyl-1,3-dihydroxyisopropyl]
- killing at 0.2 % ([3]; Escherichia coli): 90%
- killing at 0.2 % ([4]; Staphylococcus aureus): 70%
- Virulicidal activity (%) to poliomyelitis virus under exposure of 30 min [5, 10]: 50.0%
- Virulicidal activity (%) to poliomyelitis virus under exposure of 60 min [5, 11]: 70.0%
- Virulicidal activity (%) to poliomyelitis virus under exposure of 30 min [5, 12]: 80.0%
- Virulicidal activity (%) to poliomyelitis virus under exposure of 60 min [5, 13]: 90.0%

Structure (SMILES): O=S(=O)(NCl)c1ccccc1 [sodium N-chlorobenzenesulfamide, reference compound]
- killing at 0.2 % ([3]; Escherichia coli): 100%
- killing at 0.5 % ([3]; Escherichia coli, read-out: Death of micro-organisms, % Escherichia coli): 100%
- killing at 0.2 % ([4]; Staphylococcus aureus): 90%
- killing at 0.5 % ([4]; Staphylococcus aureus, read-out: Death of micro-organisms, % Staphylo-cocus aureus): 100%
- Virulicidal activity (%) under exposure 30 min ([6]; concentration 1.0 % by mass): 9.0%
- Virulicidal activity (%) under exposure 60 min ([6]; concentration 1.0 % by mass): 25.0%
- Virulicidal activity (%) under exposure 30 min ([6]; concentration 2.0 % by mass): 12.5%
- Virulicidal activity (%) under exposure 60 min ([6]; concentration 2.0 % by mass): 50.0%
- Virulicidal activity (%) under exposure 60 min [8]: 25.0% and 50.0%
- Virulicidal activity (%) to poliomyelitis virus under exposure of 30 min [5, 10]: 9.0%
- Virulicidal activity (%) to poliomyelitis virus under exposure of 60 min [5, 11]: 25.0%
- Virulicidal activity (%) to poliomyelitis virus under exposure of 30 min [5, 12]: 12.5%
- Virulicidal activity (%) to poliomyelitis virus under exposure of 60 min [5, 13]: 50.0%
- Virulicidal activity (%) under exposure 30 min ([7]; concentration 1.0 % by mass): 12.5% and 22.0%
- Virulicidal activity (%) under exposure 60 min ([7]; concentration 1.0 % by mass): 25.0%
- Virulicidal activity (%) under exposure 30 min ([7]; concentration 2.0 % by mass): 25.0% and 25.1%
- Virulicidal activity (%) under exposure 60 min ([7]; concentration 2.0 % by mass): 50.0%

Structure (SMILES): O=[N+]([O-])c1ccc(C(O)C(CO)N=P(OC(CCl)c2ccccc2)(OC(CCl)c2ccccc2)OC(CCl)c2ccccc2)cc1 (stereo not drawn) [Example 4, tris/2-chloro-1-phenylethoxy/phosphazo-1-para-nitrophenyl-1,3-propandiol]
- Death of flies, % Tests in laboratory [1]: 73.4%
- Death of flies, % Tests in large-scale [2]: 75.0%

Structure (SMILES): CC(C)OP(=NC(CCl)C(O)c1ccc([N+](=O)[O-])cc1)(OC(C)C)OC(C)C (stereo not drawn) [Example 6, tri-isopropoxyphosphazo-1-para-nitrophenyl-1-chloro-3-propanol]
- Death of flies, % Tests in laboratory [1]: 90.9%
- Death of flies, % Tests in large-scale [2]: 89.0%
- Virulicidal activity (%) under exposure 30 min ([6]; concentration 1.0 % by mass): 100.0%
- Virulicidal activity (%) under exposure 60 min ([6]; concentration 1.0 % by mass): 100.0%
- Virulicidal activity (%) under exposure 30 min ([6]; concentration 2.0 % by mass): 100,0%
- Virulicidal activity (%) under exposure 60 min ([6]; concentration 2.0 % by mass): 100,0%
- Virulicidal activity (%) under exposure 30 min [8]: 99.0% and 100.0%
- Virulicidal activity (%) under exposure 60 min [8]: 100.0%
- Virulicidal activity (%) under exposure 30 min ([7]; concentration 1.0 % by mass): 75.0%
- Virulicidal activity (%) under exposure 60 min ([7]; concentration 1.0 % by mass): 98.0%
- Virulicidal activity (%) under exposure 30 min ([7]; concentration 2.0 % by mass): 93.8%
- Virulicidal activity (%) under exposure 60 min ([7]; concentration 2.0 % by mass): 100.0%

Structure (SMILES): O=[N+]([O-])c1ccc(C(O)C(CCl)N=P(OC(CCl)c2ccccc2)(OC(CCl)c2ccccc2)OC(CCl)c2ccccc2)cc1 (stereo not drawn) [Example 8, tris/2-chlorol-phenylethoxy/-phosphazo-1-paranitrophenyl-1-chloro-3-propanol]
- Death of flies, % Tests in laboratory [1]: 84.3%
- Death of flies, % Tests in large-scale [2]: 84.0%

Structure (SMILES): O=[N+]([O-])c1ccc(C(O)C(CO)N=P(Nc2ccccc2)(Nc2ccccc2)Nc2ccccc2)cc1 (stereo not drawn) [Example 29, trianilidophosphazo-1-para-nitrophenyl-1,3-propanediol]
- killing at 2 % [9, 14]: 97.6%
- killing at 2 % [9, 15]: 100%

Structure (SMILES): CCCOP(=NC(CCl)C(Cl)c1ccc([N+](=O)[O-])cc1)(OCCC)OCCC (stereo not drawn) [Example 11, tri-n-propoxyphosphazo-1-para-nitrophenyl-1,3-dichloropropane]
- Death of flies, % Tests in laboratory [1]: 89.0%
- Death of flies, % Tests in large-scale [2]: 89.0%

Structure (SMILES): O=[N+]([O-])c1ccc(C(O)C(CO)N=P(Cl)(Oc2ccc(Cl)cc2)Oc2ccc(Cl)cc2)cc1 (stereo not drawn) [Example 37, di-para-chlorophenoxychlorophosphazo-1-para-nitrophenyl-1,3-dihydroxyisopropyl]
- Death of micro-organisms, % E.coli [3]: 100.0%
- Death of micro-organisms, % S.aureus [4]: 100.0%
- Virulicidal activity (%) to poliomyelitis virus under exposure of 30 min [5]: 60.0% and 90.0%
- Virulicidal activity (%) to poliomyelitis virus under exposure of 60 min [5]: 90.0% and 100.0%

Structure (SMILES): CC(C)OP(=NC(CCl)C(Cl)c1ccc([N+](=O)[O-])cc1)(OC(C)C)OC(C)C (stereo not drawn) [Example 12, triisopropoxyphosphazo-1-paranitrophenyl]
- Death of flies, % Tests in laboratory [1]: 92.0%
- Death of flies, % Tests in large-scale [2]: 90.0%

Structure (SMILES): O=[N+]([O-])c1ccc(C(O)C(CO)N=P(Cl)(Cl)Oc2ccc(Cl)cc2)cc1 (stereo not drawn) [Example 39, para-chlorophenoxydichlorophosphazo-1-para-nitrophenyl-1,3-dihydroxyisopropyl]
- Death of micro-organisms, % E.coli [3]: 100.0%
- Death of micro-organisms, % S.aureus [4]: 100.0%
- Virulicidal activity (%) to poliomyelitis virus under exposure of 30 min [5]: 70.0% and 95.0%
- Virulicidal activity (%) to poliomyelitis virus under exposure of 60 min [5]: 90.0% and 100.0%

Structure (SMILES): O=[N+]([O-])c1ccc(C(Cl)C(CCl)N=P(OC(CCl)c2ccccc2)(OC(CCl)c2ccccc2)OC(CCl)c2ccccc2)cc1 (stereo not drawn) [Example 14, tris-/2-chloro-1-phenoxy/phosphazo-1-para-nitrophenyl-1,3-dichloropropane]
- Death of flies, % Tests in laboratory [1]: 71.3%
- Death of flies, % Tests in large-scale [2]: 70.0%
- Virulicidal activity (%) under exposure 30 min ([6]; concentration 1.0 % by mass): 100.0%
- Virulicidal activity (%) under exposure 60 min ([6]; concentration 1.0 % by mass): 100.0%
- Virulicidal activity (%) under exposure 30 min ([6]; concentration 2.0 % by mass): 100,0%
- Virulicidal activity (%) under exposure 60 min ([6]; concentration 2.0 % by mass): 100,0%
- Virulicidal activity (%) under exposure 30 min [8]: 50.0% and 90.0%
- Virulicidal activity (%) under exposure 60 min [8]: 75.0% and 100.0%
- Virulicidal activity (%) under exposure 30 min ([7]; concentration 1.0 % by mass): 75.0%
- Virulicidal activity (%) under exposure 60 min ([7]; concentration 1.0 % by mass): 93.8%
- Virulicidal activity (%) under exposure 30 min ([7]; concentration 2.0 % by mass): 93.8%
- Virulicidal activity (%) under exposure 60 min ([7]; concentration 2.0 % by mass): 100.0%

Structure (SMILES): CCCCOP(=NC(CCl)C(O)c1ccc([N+](=O)[O-])cc1)(OCCCC)OCCCC (stereo not drawn) [Example 7, tri-n-butoxyphosphazo-1-paranitrophenyl-1-chloro-3-propanol]
- Death of flies, % Tests in laboratory [1]: 96.0%
- Death of flies, % Tests in large-scale [2]: 96.8%

Structure (SMILES): CNC(=S)S [carbathione, dihydrate, reference compound]
- killing at 2 % [9, 14]: 60%
- killing at 2 % [9, 15]: 80%

Structure (SMILES): CCCCOP(=NC(CCl)C(Cl)c1ccc([N+](=O)[O-])cc1)(OCCCC)OCCCC (stereo not drawn) [Example 13, tri-n-butoxyphosphazo-1-para-nitrophenyl-1,3-dichloropropane]
- Death of flies, % Tests in laboratory [1]: 92.0%
- Death of flies, % Tests in large-scale [2]: 91.0%
- Virulicidal activity (%) under exposure 30 min ([6]; concentration 1.0 % by mass): 75.0%
- Virulicidal activity (%) under exposure 60 min ([6]; concentration 1.0 % by mass): 100.0%
- Virulicidal activity (%) under exposure 30 min ([6]; concentration 2.0 % by mass): 100,0%
- Virulicidal activity (%) under exposure 60 min ([6]; concentration 2.0 % by mass): 100,0%
- Virulicidal activity (%) under exposure 30 min [8]: 75.0% and 99.0%
- Virulicidal activity (%) under exposure 60 min [8]: 100.0%
- Virulicidal activity (%) under exposure 30 min ([7]; concentration 1.0 % by mass): 50.0%
- Virulicidal activity (%) under exposure 60 min ([7]; concentration 1.0 % by mass): 75.0%
- Virulicidal activity (%) under exposure 30 min ([7]; concentration 2.0 % by mass): 93.8%
- Virulicidal activity (%) under exposure 60 min ([7]; concentration 2.0 % by mass): 100.0%
